Test results: patent US5744462A, “Steroids useful as anti-cancer and anti-obesity agents” (Research Corporation Technologies, Inc., priority 1995, dated 1998)
Entries after “also recorded” stand apart in the source; their conditions may differ.

Experiments:
[1] = topical, complete carcinogenesis model; cited from earlier work
[2] = DMBA-initiated and TPA-promoted; cited from earlier work
[3] = system: human lymphocytes (Epstein-Barr virus-induced transformation); settings: cited from earlier work
[4] = system: mammalian glucose-6-phosphate dehydrogenase (G6PDH); settings: cited from earlier work
[5] = biological target: purified bovine adrenal G6PDH (Bos taurus, UniProt F1MMK2); experiment: G6PDH inhibition test; assay type: biochemical; settings: individual determinations
Text: The compound listed below are screened as inhibitors of purified bovine adrenal G6PDH activity as one predictor of cancer preventive action. The assay for testing the inhibition of purified bovine adrenal G6PDH is according to the procedure by Oertell, G. W. and Rebelein, I. in Biochem. Biophys. Acta, 184, 459-460 (1969).

[6] = Anti-obesity action, body weight, female Balb/c mice; assay type: in vivo, mouse (female Balb/c); settings: 0.25% in diet
Procedure: Female Balb/c (8 weeks old) mice were obtained from
the Jackson Laboratory and were housed in polycarbonate cages
(6 mice/cage) in animal quarters maintained at 24 ± 1° C. with
12 hours of light and 12 hours of darkness each day. One
week after arrival, the mice were placed on a diet containing
either DHEA, 8354, or without steroid. Animals were weighed

[7] = system: mouse epidermis (TPA stimulated 3H-thymidine incorporation); experiment: TPA stimulation of 3H-thymidine incorporation in mouse epidermis, oral steroid; assay type: in vivo, mouse (male ICR); settings: Table 9, no steroid 55.1, TPA alone 118
Procedure: Tumor promoters, such as TPA, stimulate hyperplasia and DNA synthesis when applied to the skin, and it is believed that this stimulation is an important step in the enhancement of tumorigenesis.
Male ICR mice were orally intubated with steroid suspended in sesame oil (0.5 ml/mouse) at the indicated dose. Mice not receiving steroid were given sesame oil alone. One hour later mice received topical application of TPA and 20 hours later the rate of ^3 H-thymidine incorporation into the epidermis was determined as described in Pashko, L. L., Schwartz, A. G., Abou-Gharbia, M., and Swern, D. (1981), Inhibition of DNA synthesis in mouse epidermis and breast epithelium by dehydroepiandrosterone and related steroids, Carcinogenesis, 2,-717-721.
Experimental conditions are the same as in Table 3.

liver catalase = experiment: Liver catalase activity after three weeks of diet treatment; assay type: in vivo, mouse (female Balb/c); settings: 0.25% of diet
Procedure: (§1) Female Balb/c mice were housed in polycarbonate cages (6/mice/cage) in animal quarters maintained at 24°±1° C. with 12 hours of light and 12 hours of dark each day. The mice were placed on a diet containing either DHEA, 8354, A, B clofibrate or with no addition. Three weeks later the mice were killed, the livers were perfused with cold saline, weighed, and 5% liver homogenates were prepared for the determination of catalase activity by the spectrophotometric method of Luck (H. Luck, in Method in Enzyme Analysis, H. U. Bergmeyer, Ed. (Verlag Chemie, Weinheim/Bergstrasse, Germany, 1965)). Total protein was measured by the method of Lowry, et al. (O. H. Lowry, N. J. Rosebrough, A. L. Farr, R. J. Randall, J. Biol. Chem., 193, 265 (1951)).

mouse skin DNA = experiment: (3H) DMBA binding to skin DNA; assay type: in vivo, mouse (A/J); settings: oral, mice, doses well below 400 mg/kg
[8] = Estrogenic and anti-estrogenic activity, uterine weight; assay type: in vivo, rat (female CD); settings: Table 2a; 60 mg/kg s.c. for 3 days; control 1.95 ± 0.22; DHEA significantly greater than control, p < 0.001
Procedure: Estrogenic and Anti-Estrogenic Activity
Female CD rats, 26-27 days old, were injected subcutaneously for 3 days with one of the compounds of the present invention at 60 mg/kg in propylene glycol. Controls received propylene glycol alone. On the 4th day, the rats were killed and the uteri were dissected out and weighed.

[9] = Estrogenic / androgenic side-effects, general statements; settings: in vivo
[10] = Anti-weight effect in mice, general statements; assay type: in vivo, mouse
Text: (Table 9 vs Table 5 and Table 6). […] Thus the cancer preventive the cancer preventive effect of DHEA may result indirectly from its anti-weight action rather than from a direct effect of DHEA or target cells.

[11] = Liver weight after three weeks of diet treatment; assay type: in vivo, mouse (female Balb/c); settings: 0.25% of diet
Procedure: as §1

[12] = in vivo; cited from earlier work
[13] = after carcinogen; cited from earlier work

Sequence of purified bovine adrenal G6PDH (F1MMK2 31-70): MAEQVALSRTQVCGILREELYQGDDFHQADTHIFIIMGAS
Sequence of purified bovine adrenal G6PDH (F1MMK2 101-575): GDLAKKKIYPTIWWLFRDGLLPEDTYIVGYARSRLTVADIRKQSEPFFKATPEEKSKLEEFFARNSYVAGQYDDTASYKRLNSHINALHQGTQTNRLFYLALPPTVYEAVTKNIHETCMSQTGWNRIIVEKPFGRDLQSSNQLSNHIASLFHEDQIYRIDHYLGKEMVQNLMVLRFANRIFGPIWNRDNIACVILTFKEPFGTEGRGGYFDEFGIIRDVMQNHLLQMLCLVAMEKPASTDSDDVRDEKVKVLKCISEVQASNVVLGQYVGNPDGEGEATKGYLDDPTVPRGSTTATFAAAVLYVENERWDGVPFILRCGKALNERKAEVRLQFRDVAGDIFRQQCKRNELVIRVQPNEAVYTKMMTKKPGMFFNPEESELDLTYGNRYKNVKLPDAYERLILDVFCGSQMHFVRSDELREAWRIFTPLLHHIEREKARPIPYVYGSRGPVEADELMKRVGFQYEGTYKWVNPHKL

**Q.** What does the source list for C[C@H]1CC[C@@]2(C)C(=CC[C@@H]3[C@@H]2CC[C@]2(C)C(=O)CC[C@@H]32)C1 [3β-methylandrost-5-en-17-one]?
**A.** DMBA produced papillomas and carcinomas [1]: inhibits DMBA produced papillomas and carcinomas; skin papilloma formation [2]: inhibit

**Q.** What does the source list for C[C@]12CC[C@H](O)C[C@@H]1CC[C@@H]1[C@@H]2CC[C@]2(C)C(=O)C(Br)C[C@@H]12 (some centres unmarked) [16-bromo-epiandrosterone]?
**A.** inhibition of Epstein-Barr virus-induced transformation [3]: inhibitors of Epstein-Barr virus-induced transformation of human lymphocytes; inhibition of mammalian G6PDH [4]: more potent inhibitor of mammalian G6PDH than DHEA

**Q.** With C[C@]12CCCCC1=CC[C@@H]1[C@@H]2CC[C@]2(C)C(=O)[C@H](F)C[C@@H]12 [Compound 8354] as the compound, how does the “Percent Inhibition of G6PDH” value ([5]; 10^-5 M) read?
**A.** 83%

**Q.** What about the inhibition at 10 µM ([5]; 10^-5 M, read-out: Percent Inhibition of G6PDH) of the same compound?
**A.** 79%

**Q.** What about the “Percent Inhibition of G6PDH” value ([5]; 10^-6 M) of the same compound?
**A.** 77%

**Q.** What about the inhibition at 1 µM ([5]; 10^-6 M, read-out: Percent Inhibition of G6PDH) of the same compound?
**A.** 75%

**Q.** What about the “mean weekly weight ± S.D.” value ([6]; week 0, control 17.5 ± 1.4) of the same compound?
**A.** 17.4 ± 0.6 grams

**Q.** And the “mean weekly weight ± S.D.” value ([6]; week 1, control 19.9 ± 1.2)?
**A.** 16.9 ± 1.0 grams

**Q.** And the “mean weekly weight ± S.D.” value ([6]; week 2, control 20.6 ± 1.0)?
**A.** 17.8 ± 0.8 grams

**Q.** And the “mean weekly weight ± S.D.” value ([6]; week 3, control 21.8 ± 0.8)?
**A.** 18.0 ± 1.3 grams

**Q.** And the “SPECIFIC ACTIVITY, TPA stimulated 3H-thymidine incorporation” value (from here on “SPECIFIC ACTIVITY”) ([7]; oral 25 mg/kg)?
**A.** 47.9 ± 2.0 cpm/ug DNA

**Q.** And the “SPECIFIC ACTIVITY” value ([7]; oral 50 mg/kg)?
**A.** 36.2 ± 1.4 cpm/ug DNA

**Q.** What about the “SPECIFIC ACTIVITY” value ([7]; oral 100 mg/kg) of the same compound?
**A.** 15.0 ± 6.3 cpm/ug DNA

**Q.** What about the “CATALASE ACTIVITY” value (liver catalase; control 31.1 ± 6.7, DHEA p < 0.05, clofibrate p < 0.001 vs control) of the same compound?
**A.** 29.2 ± 2.6 Units per mg protein

**Q.** What about the “catalase activity, in words” value (liver catalase; mice) of the same compound?
**A.** no effect on liver weight or catalase activity

**Q.** And the “effect on 3H-DMBA binding to skin DNA” value (mouse skin DNA)?
**A.** inhibit ^3 H-DMBA binding to skin DNA

**Q.** What about the “Mean Uterine Weigh ± S.D.” value [8] of the same compound?
**A.** 1.93 ± 0.29

**Q.** What about the “estrogenic and androgenic side-effects” value [9] of the same compound?
**A.** lacking the estrogenic and androgenic side-effects of DHEA

**Q.** And the “activity as an anti-obesity agent relative to DHEA” value ([10]; mouse, in vivo)?
**A.** several times more active than DHEA as an anti-obesity agent

**Q.** What about the “anti-weight effect at the cancer preventive dosages” value ([10]; oral, mice) of the same compound?
**A.** possible exception

**Q.** And the “LIVER WEIGHT” value ([11]; control 0.057 ± 0.006, DHEA p < 0.05, clofibrate p < 0.002 vs control)?
**A.** 0.066 ± 0.005 gm/gm body weight

**Q.** What about the “liver weight, in words” value ([11]; mice) of the same compound?
**A.** no effect on liver weight; also recorded: neither increased liver weight

**Q.** Which “effect on liver (type of hepatomegaly)” value [12] does the source give for CCCCC(CC)COC(=O)c1ccccc1C(=O)OCC(CC)CCCC (centres unmarked) [di(2-ethylhexyl)-phthalate] here?
**A.** Typical peroxisome proliferators

**Q.** What about the “liver basophilic lesions, enzyme-negative” value [13] of the same compound?
**A.** also produced
